Source: patent publication US4525473A, “Cephalosporins” (Bristol-Myers Company, priority 1983, dated 1985)
Values after ≈ are worked out from the molar mass of the structure shown. Read-outs that look alike come from different tables or passages of the source.

Tests used:
Type in all cases: cell-based
PCresistant S. aureus = experiment: MIC by two-fold serial agar dilution in Mueller-Hinton agar, Gp-Ib; conditions: for MIC: Staphylococcus aureus, read-out: Geometric Mean of MIC
Protocol: (§1) In the primary evaluation of the compounds of this invention, the Minimum Inhibitory Concentrations (MIC's) of the compounds were determined by the two-fold serial agar dilution method in Mueller-Hinton agar against 32 strains of test organisms in six groups.
GpIb: PCresistant S. aureus

[1] = system: Cephalothin(CET)sensitive E. coli (2 strains), K. pneumoniae (1) and P. mirabilis (2); experiment: MIC by two-fold serial agar dilution in Mueller-Hinton agar, Gn-Ia; conditions: for MIC: read-out: Geometric Mean of MIC
Protocol: as §1
GnIa: Cephalothin(CET)sensitive E. coli (2 strains), K. pneumoniae (1) an […]

[2] = system: Penicillin(PC)sensitive S. aureus; experiment: MIC by two-fold serial agar dilution in Mueller-Hinton agar, Gp-Ia; conditions: for MIC: Staphylococcus aureus
Protocol: as §1
Gp-Ia: Penicillin(PC)sensitive S. aureus

P. aeruginosa = experiment: MIC by two-fold serial agar dilution in Mueller-Hinton agar, Gn-III; conditions: Gn-III, 7 strains, P. aeruginosa; for MIC: Pseudomonas aeruginosa, read-out: Geometric Mean of MIC
Protocol: as §1

[3] = system: M. morganii (1), E. cloacae (2) and S. marcescens (2); experiment: MIC by two-fold serial agar dilution in Mueller-Hinton agar, Gn-II; conditions: for MIC: read-out: Geometric Mean of MIC
Protocol: as §1
GnII: M. morganii (1), E. cloacae (2) and S. marcescens (2)

[4] = system: CETresistant E. coli (3) and K. pneumoniae (2); experiment: MIC by two-fold serial agar dilution in Mueller-Hinton agar, Gn-Ib; conditions: for MIC: Escherichia coli, read-out: Geometric Mean of MIC
Protocol: as §1
GnIb: CETresistant E. coli (3) and K. pneumoniae (2)

[5] = Gp-Ib, 5 strains, PC-resistant S. aureus
[6] = Gn-Ia, 5 strains, CET-sensitive
[7] = Gp-Ia, 5 strains, PC-sensitive S. aureus, read-out: Geometric Mean of MIC
[8] = Gn-Ib, 5 strains, CET-resistant
[9] = read-out: Geometric Mean of MIC, Gp-Ia, 5 strains, PC-sensitive S. aureus

| Molecule | MIC (PCresistant S. aureus; [5]) | MIC [1, 6] | MIC [2, 7] | MIC (P. aeruginosa) | MIC ([3]; Gn-II, 5 strains) | MIC [4, 8] | MIC [2, 9] | MIC [3] | MIC [4] | Geometric Mean of MIC (PCresistant S. aureus; [5]) | Geometric Mean of MIC [1, 6] | Geometric Mean of MIC ([2]; Gp-Ia, 5 strains, PC-sensitive S. aureus) | Geometric Mean of MIC (P. aeruginosa) | Geometric Mean of MIC ([3]; Gn-II, 5 strains) | Geometric Mean of MIC [4, 8] | MIC (PCresistant S. aureus) | MIC [1] |
| --- | --- | --- | --- | --- | --- | --- | --- | --- | --- | --- | --- | --- | --- | --- | --- | --- | --- |
| CO/N=C(\C(=O)NC1C(=O)N2C(C(=O)[O-])=C(C[N+]3(C)Cc4ccccc4C3)CS[C@H]12)c1csc(N)n1 (stereo partly drawn) [Example 14, 7-[(Z)-2-(2-Aminothiazol-4-yl)-2-methoxyiminoacetamido]-3-[(2-methyl-2-benzo[c]pyrrolinio)methyl]-3-cephem-4-carboxylate] | 1.7 µg/mL (≈ 3.22 µM) | 0.042 µg/mL (≈ 0.0795 µM) | 0.51 µg/mL (≈ 0.965 µM) | 7.7 µg/mL (≈ 14.6 µM) | 0.13 µg/mL (≈ 0.246 µM) | 0.13 µg/mL (≈ 0.246 µM) |  |  |  |  |  |  |  |  |  |  |  |
| CO/N=C(\C(=O)NC1C(=O)N2C(C(=O)[O-])=C(C[N+]3(C)CCC(O)C3)CS[C@H]12)c1csc(N)n1 (stereo partly drawn) [Example 9, 7-[(Z)-2-(2-Aminothiazol-4-yl)-2-methoxyiminoacetamido]-3-(3-hydroxy-1-methylpyrrolidinio)methyl-3-cephem-4-carboxylate] | 3.3 µg/mL (≈ 6.65 µM) | 0.27 µg/mL (≈ 0.544 µM) |  | 2.9 µg/mL (≈ 5.84 µM) |  |  | 1.3 µg/mL (≈ 2.62 µM) | 0.14 µg/mL (≈ 0.282 µM) | 0.14 µg/mL (≈ 0.282 µM) |  |  |  |  |  |  |  |  |
| CO/N=C(\C(=O)NC1C(=O)N2C(C(=O)[O-])=C(C[N+]3(C)CCCCC3)CS[C@H]12)c1csc(N)n1 (stereo partly drawn) [Example 1, 7-[(Z)-2-(2-Aminothiazol-4-yl)-2-methoxyiminoacetamido]-3-(1-methyl-1-piperidinio)methyl-3-cephem-4-carboxylate] | 2.9 µg/mL (≈ 5.86 µM) | 0.03 µg/mL (≈ 0.0607 µM) |  | 3.2 µg/mL (≈ 6.47 µM) | 0.55 µg/mL (≈ 1.11 µM) |  | 1.3 µg/mL (≈ 2.63 µM) |  | 0.14 µg/mL (≈ 0.283 µM) |  |  |  |  |  |  |  |  |
| CO/N=C(\C(=O)NC1C(=O)N2C(C(=O)[O-])=C(C[N+]3(C)CCOC3)CSC12)c1csc(N)n1 (single isomer, unassigned) [12 Isomer A] | 4.4 µg/mL (≈ 9.12 µM) | 0.046 µg/mL (≈ 0.0953 µM) |  | 5.4 µg/mL (≈ 11.2 µM) | 0.21 µg/mL (≈ 0.435 µM) | 0.25 µg/mL (≈ 0.518 µM) | 1.1 µg/mL (≈ 2.28 µM) |  |  |  |  |  |  |  |  |  |  |
| 7-[(Z)-2-(2-Aminothiazol-4-yl)-2-methoxyiminoacetamido]-3-[(6-methyl-5,6,7,8-tetrahydro-6-[1,6]naphthylidinio)methyl]-3-cephem-4-carboxylate [Example 23] |  |  |  |  |  |  |  |  |  | 2.9 µg/mL | 0.070 µg/mL | 1.4 µg/mL | 6.3 µg/mL | 0.96 µg/mL | 0.28 µg/mL |  |  |
| C#CCO/N=C(\C(=O)NC1C(=O)N2C(C(=O)[O-])=C(C[N+]3(C)CCCC3)CSC12)c1csc(N)n1 (stereo not drawn) [Example 18, 7-[(Z)-2-(2-Aminothiazol-4-yl)-2-propargyloxyiminoacetamido]-3-(1-methyl-1-pyrrolidiniomethyl)-3-cephem-4-carboxylate] | 2.2 µg/mL (≈ 4.36 µM) | 0.061 µg/mL (≈ 0.121 µM) | 0.77 µg/mL (≈ 1.53 µM) | 4 µg/mL (≈ 7.93 µM) | 0.36 µg/mL (≈ 0.713 µM) |  |  |  | 0.32 µg/mL (≈ 0.634 µM) |  |  |  |  |  |  |  |  |
| CO/N=C(\C(=O)NC1C(=O)N2C(C(=O)[O-])=C(C[N+]34CCC(CC3)CC4)CS[C@H]12)c1csc(N)n1 (stereo partly drawn) [Example 3, 7-[(Z)-2-(2-Aminothiazol-4-yl)-2-methoxyiminoacetamido]-3-(1-quinuclidinio)methyl-3-cephem-4-carboxylate] |  |  | 0.77 µg/mL (≈ 1.52 µM) | 2.8 µg/mL (≈ 5.53 µM) | 0.84 µg/mL (≈ 1.66 µM) | 0.14 µg/mL (≈ 0.276 µM) |  |  |  |  |  |  |  |  |  | 2.5 µg/mL (≈ 4.93 µM) | 0.04 µg/mL (≈ 0.079 µM) |
